Measurements published in patent publication US4638009A, “Derivatives of 3-pyrrolidinopropiophenone and a process for preparation thereof” (Hokuriku Pharmaceutical Co., Ltd., priority 1984, dated 1987).
Counter-ions that a name gives are not always drawn.

Assays:
[1] = in vivo; details: mouse
Method: Male ddY mice 5 weeks old were used with 5 animals at a group. The compounds were administrated orally with each dosage. LD50 was determined by the Probit method from dead animals dying within 7 days.

[2] = system: nicotine-induced convulsion; assay: Activity on nicotine-induced convulsion; format: in vivo, male ddY mice; details: compound 25 mg/kg p.o., nicotine tartrate 3 mg/kg i.v. 15 min later, n=5; for mortality: dead animals because of the convulsions
Method: 2. Activity on nicotine-induced convulsion
Male ddY mice 5 weeks old were used with 5 animals in a group. The compounds were administered per os at a dose of 25 mg/kg. After 15 minutes of drug administration, Nicotine tartarate was administered intravenously at an amount of 3 mg/kg and the tonic convulsions and dead animals because of the convulsions have been measured. The effect of the compounds has been indicated by percentage of appearance of tonic convulsion and the mortality.

[3] = system: oxotremorine-induced tremor; assay: Effect on oxotremorine-induced tremor; format: in vivo, male ddY mice; details: 100 mg/kg p.o., oxotremorine 1 mg/kg i.p. 15 min later, 0=absent to 5=lack of righting reflex; for tremor score, 5 min: passage of time 5 min; for tremor score, 10 min: passage of time 10 min; for tremor score, 15 min: passage of time 15 min; for tremor score, 20 min: passage of time 20 min; for tremor score, 30 min: passage of time 30 min
Method: 3. Effect on oxotremorine-induced tumor
Male ddY mice 5 weeks old were used with 5 animals in a group. The compounds were administrated per os at a dose of 100 mg/kg and after 15 minutes oxotremorine was intraperitoneally administered at dose of 1 mg/kg. The strength of the induced tremor was observed by the method of Suzuki et al (Folia Pharmacologica Japonica, 83, 127(1983) and scored up with passage of time as follows:
4=severe, 5=lack of righting reflex.

[4] = cited from earlier work; for side effect (prior art): in vivo
[5] = versus Tolperisone; cited from earlier work

| SMILES | LD50 at 168 h ([1]; oral, deaths within 7 days, Probit method, n=5 per group) | appearance of tonic convulsion [2] | mortality [2] | tremor score, 5 min [3] | tremor score, 10 min [3] | tremor score, 15 min [3] | tremor score, 20 min [3] | tremor score, 30 min [3] | toxicity (prior art) ([4]; Eperisone versus Tolperisone) | side effect (prior art) [4] | muscle relaxation activity of Eperisone (prior art) [5] | LD50 at 168 h ([1]; po) |
| --- | --- | --- | --- | --- | --- | --- | --- | --- | --- | --- | --- | --- |
| CCCCc1ccc(C(=O)C(C)CN2CCCC2)cc1 (stereo not drawn) [Compound 1, 4'-n-Butyl-2-methyl-3-pyrrolidinopropiophenone] | 520 mg/kg | 20% | 40% | 0 | 0.4 | 0.4 | 0.9 | 0.8 |  |  |  |  |
| CCc1ccc(C(=O)C(C)CN2CCCC2)cc1 (stereo not drawn) [Compound 2, 4'-Ethyl-2-methyl-3-pyrrolidinopropiophenone] |  | 40% | 60% | 0 | 0.4 | 0.3 | 0.4 | 0.4 |  |  |  |  |
| CCc1ccc(C(=O)C(C)CN2CCCCC2)cc1 (stereo not drawn) [Eperisone] |  |  |  |  |  |  |  |  | just the same strong toxicity as Tolperisone | hepatic and kidney function disorder | improvement in muscle relaxation activity |  |
| CCc1ccc(C(=O)C(C)CN2CCCCC2)cc1 (stereo not drawn) [Reference Drug, Eperisone hydrochloride, reference compound] |  | 60% | 100% | 0 | 0.4 | 0.3 | 0.2 | 0 |  |  |  | 332 mg/kg |
| Cc1ccc(C(=O)C(C)CN2CCCCC2)cc1 (stereo not drawn) [Tolperisone] |  |  |  |  |  |  |  |  |  | hepatic functional disorder |  |  |
